Key:
Assay type in all cases: in vivo
Polygonum convolvulus [1] = assay: Post-emergence herbicidal action against POLCO; conditions: 80 g/ha, visual assessment about 3 weeks after treatment
Summary of the method: (§1)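 Spray, one-leaf stage: WP or EC compound in water, 600–800 l/ha, 0.2% wetting agent. Plants held about 3 weeks in the greenhouse, then visually rated in percent of kill compared with untreated controls.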

Alopecurus myosuroides [2] = assay: Post-emergence herbicidal action against ALOMY
Summary of the method: as §1

Avena fatua [3] = assay: Post-emergence herbicidal action against AVEFA; conditions: visual assessment about 3 weeks after treatment
Summary of the method: as §1

Lolium rigidum [4] = assay: Pre-emergence herbicidal action against LOLRI
Summary of the method: (§2)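 Pre-emergence soil-surface spray of formulated compound (WP or EC; 600 to 800 l/ha; 0.2% wetting agent) over seeds sown in sandy loam. After 3 weeks under greenhouse conditions, damage is estimated visually in percent against untreated plants.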

Viola tricolor [5] = assay: Pre-emergence herbicidal action against VIOTR
Summary of the method: as §2

Echinochloa crus-galli [6] = assay: Post-emergence herbicidal action against ECHCG; conditions: visual assessment about 3 weeks after treatment
Summary of the method: as §1

Pharbitis purpurea [7] = assay: Post-emergence herbicidal action against PHBPU; conditions: visual assessment about 3 weeks after treatment
Summary of the method: as §1

Hordeum murinum [8] = assay: Post-emergence herbicidal action against HORMU
Summary of the method: as §1

Hordeum murinum [9] = assay: Pre-emergence herbicidal action against HORMU; conditions: visual score after 3 weeks vs untreated controls
Summary of the method: as §2

Echinochloa crus-galli [10] = assay: Pre-emergence herbicidal action against ECHCG; conditions: visual score after 3 weeks vs untreated controls
Summary of the method: as §2

Stellaria media [11] = assay: Post-emergence herbicidal action against STEME; conditions: visual assessment about 3 weeks after treatment
Summary of the method: as §1

Lolium rigidum [12] = assay: Post-emergence herbicidal action against LOLRI
Summary of the method: as §1

Abutilon theophrasti [13] = assay: Pre-emergence herbicidal action against ABUTH; conditions: Dosage column 320 g/ha (heading prints 3200 g/ha); visual score after 3 weeks vs untreated controls
Summary of the method: as §2

Abutilon theophrasti [14] = assay: Post-emergence herbicidal action against ABUTH
Summary of the method: as §1

Cyperus esculentus [15] = assay: Pre-emergence herbicidal action against CYPES; conditions: visual score after 3 weeks vs untreated controls
Summary of the method: as §2

Alopecurus myosuroides [16] = assay: Pre-emergence herbicidal action against ALOMY; conditions: visual score after 3 weeks vs untreated controls
Summary of the method: as §2

Setaria viridis [17] = assay: Pre-emergence herbicidal action against SETVI
Summary of the method: as §2

Cyperus esculentus [18] = assay: Post-emergence herbicidal action against CYPES; conditions: visual assessment about 3 weeks after treatment
Summary of the method: as §1

Amaranthus retroflexus [19] = assay: Pre-emergence herbicidal action against AMARE; conditions: visual score after 3 weeks vs untreated controls
Summary of the method: as §2

Veronica persica [20] = assay: Post-emergence herbicidal action against VERPE; conditions: visual assessment about 3 weeks after treatment
Summary of the method: as §1

Matricaria inodora [21] = assay: Pre-emergence herbicidal action against MATIN; conditions: visual score after 3 weeks vs untreated controls
Summary of the method: as §2

Veronica persica [22] = assay: Pre-emergence herbicidal action against VERPE
Summary of the method: as §2

Avena fatua [23] = assay: Pre-emergence herbicidal action against AVEFA; conditions: visual score after 3 weeks vs untreated controls
Summary of the method: as §2

Setaria viridis [24] = assay: Post-emergence herbicidal action against SETVI; conditions: visual assessment about 3 weeks after treatment
Summary of the method: as §1

Viola tricolor [25] = assay: Post-emergence herbicidal action against VIOTR
Summary of the method: as §1

Stellaria media [26] = assay: Pre-emergence herbicidal action against STEME
Summary of the method: as §2

Matricaria inodora [27] = assay: Post-emergence herbicidal action against MATIN; conditions: visual assessment about 3 weeks after treatment
Summary of the method: as §1

Pharbitis purpurea [28] = assay: Pre-emergence herbicidal action against PHBPU; conditions: visual score after 3 weeks vs untreated controls
Summary of the method: as §2

Amaranthus retroflexus [29] = assay: Post-emergence herbicidal action against AMARE; conditions: visual assessment about 3 weeks after treatment
Summary of the method: as §1

Polygonum convolvulus [30] = assay: Pre-emergence herbicidal action against POLCO
Summary of the method: as §2

CCN(C)C(=O)c1c(C(F)(F)F)ccc(C(=O)Nc2nnnn2C)c1Cl [Example 1-124] was tested, and the “Post-emergence action against POLCO in %” value (Polygonum convolvulus [1]) was 90%, the “Post-emergence action against ALOMY” value (Alopecurus myosuroides [2]; 5 g/ha) was 90% and the “Post-emergence action against ALOMY” value (Alopecurus myosuroides [2]; 20 g/ha) was 100%. For the same compound, the “Post-emergence action against ALOMY” value (Alopecurus myosuroides [2]; 80 g/ha) was 100%, the “Post-emergence action against AVEFA in %” value (Avena fatua [3]; 5 g/ha) was 80% and the “Post-emergence action against AVEFA in %” value (Avena fatua [3]; 20 g/ha) was 100%. For the same compound, the “Post-emergence action against AVEFA in %” value (Avena fatua [3]; 80 g/ha) was 100%, the “Pre-emergence action against LOLRI” value (Lolium rigidum [4]; 80 g/ha) was 80% and the “Pre-emergence action against LOLRI” value (Lolium rigidum [4]; 320 g/ha) was 100%. The “Pre-emergence action against VIOTR” value (Viola tricolor [5]; 80 g/ha) was 100%, the “Pre-emergence action against VIOTR” value (Viola tricolor [5]; 320 g/ha) was 100% and the “Post-emergence action against ECHCG in %” value (Echinochloa crus-galli [6]; 5 g/ha) was 100%. For the same compound, the “Post-emergence action against ECHCG in %” value (Echinochloa crus-galli [6]; 20 g/ha) was 100%, the “Post-emergence action against ECHCG in %” value (Echinochloa crus-galli [6]; 80 g/ha) was 100% and the “Post-emergence action against PHBPU in %” value (Pharbitis purpurea [7]; 5 g/ha) was 80%. For the same compound, the “Post-emergence action against PHBPU in %” value (Pharbitis purpurea [7]; 20 g/ha) was 90%, the “Post-emergence action against PHBPU in %” value (Pharbitis purpurea [7]; 80 g/ha) was 90% and the “Post-emergence action against HORMU in %” value (Hordeum murinum [8]; 5 g/ha) was 80%. The “Post-emergence action against HORMU in %” value (Hordeum murinum [8]; 20 g/ha) was 90%, the “Post-emergence action against HORMU in %” value (Hordeum murinum [8]; 80 g/ha) was 100% and the “Pre-emergence action against HORMU” value (Hordeum murinum [9]; 80 g/ha) was 90%. For the same compound, the “Pre-emergence action against HORMU” value (Hordeum murinum [9]; 320 g/ha) was 90%, the “Pre-emergence action against ECHCG” value (Echinochloa crus-galli [10]; 20 g/ha) was 80% and the “Pre-emergence action against ECHCG” value (Echinochloa crus-galli [10]; 80 g/ha) was 100%. For the same compound, the “Pre-emergence action against ECHCG” value (Echinochloa crus-galli [10]; 320 g/ha) was 100%, the “Post-emergence action against STEME in %” value (Stellaria media [11]; 5 g/ha) was 100% and the “Post-emergence action against STEME in %” value (Stellaria media [11]; 20 g/ha) was 100%. For the same compound, the “Post-emergence action against STEME in %” value (Stellaria media [11]; 80 g/ha) was 100%, the “Post-emergence action against LOLRI in %” value (Lolium rigidum [12]; 20 g/ha) was 90% and the “Post-emergence action against LOLRI in %” value (Lolium rigidum [12]; 80 g/ha) was 100%. For the same compound, the “Pre-emergence action against ABUTH” value (Abutilon theophrasti [13]) was 90%, the “Post-emergence action against ABUTH” value (Abutilon theophrasti [14]; 5 g/ha) was 100% and the “Post-emergence action against ABUTH” value (Abutilon theophrasti [14]; 20 g/ha) was 100%. The “Post-emergence action against ABUTH” value (Abutilon theophrasti [14]; 80 g/ha) was 100%, the “Pre-emergence action against CYPES” value (Cyperus esculentus [15]; 80 g/ha) was 80% and the “Pre-emergence action against CYPES” value (Cyperus esculentus [15]; 320 g/ha) was 90%. For the same compound, the “Pre-emergence action against ALOMY” value (Alopecurus myosuroides [16]; 20 g/ha) was 80%, the “Pre-emergence action against ALOMY” value (Alopecurus myosuroides [16]; 80 g/ha) was 90% and the “Pre-emergence action against ALOMY” value (Alopecurus myosuroides [16]; 320 g/ha) was 100%. The “Pre-emergence action against SETVI” value (Setaria viridis [17]; 20 g/ha) was 90%, the “Pre-emergence action against SETVI” value (Setaria viridis [17]; 80 g/ha) was 100% and the “Pre-emergence action against SETVI” value (Setaria viridis [17]; 320 g/ha) was 100%. For the same compound, the “Post-emergence action against CYPES in %” value (Cyperus esculentus [18]; 20 g/ha) was 80%, the “Post-emergence action against CYPES in %” value (Cyperus esculentus [18]; 80 g/ha) was 80% and the “Pre-emergence action against AMARE” value (Amaranthus retroflexus [19]; 20 g/ha) was 90%. For the same compound, the “Pre-emergence action against AMARE” value (Amaranthus retroflexus [19]; 80 g/ha) was 90%, the “Pre-emergence action against AMARE” value (Amaranthus retroflexus [19]; 320 g/ha) was 100% and the “Post-emergence action against VERPE in %” value (Veronica persica [20]; 5 g/ha) was 80%. For the same compound, the “Post-emergence action against VERPE in %” value (Veronica persica [20]; 20 g/ha) was 80%, the “Post-emergence action against VERPE in %” value (Veronica persica [20]; 80 g/ha) was 100% and the “Pre-emergence action against MATIN” value (Matricaria inodora [21]; 20 g/ha) was 80%. The “Pre-emergence action against MATIN” value (Matricaria inodora [21]; 80 g/ha) was 90%, the “Pre-emergence action against MATIN” value (Matricaria inodora [21]; 320 g/ha) was 100% and the “Pre-emergence action against VERPE” value (Veronica persica [22]; 80 g/ha) was 80%. For the same compound, the “Pre-emergence action against VERPE” value (Veronica persica [22]; 320 g/ha) was 100%, the “Pre-emergence action against AVEFA” value (Avena fatua [23]; 80 g/ha) was 80% and the “Pre-emergence action against AVEFA” value (Avena fatua [23]; 320 g/ha) was 100%. The “Post-emergence action against SETVI in %” value (Setaria viridis [24]; 5 g/ha) was 100%, the “Post-emergence action against SETVI in %” value (Setaria viridis [24]; 20 g/ha) was 100% and the “Post-emergence action against SETVI in %” value (Setaria viridis [24]; 80 g/ha) was 100%. For the same compound, the “Post-emergence action against VIOTR in %” value (Viola tricolor [25]; 5 g/ha) was 100%, the “Post-emergence action against VIOTR in %” value (Viola tricolor [25]; 20 g/ha) was 100% and the “Post-emergence action against VIOTR in %” value (Viola tricolor [25]; 80 g/ha) was 100%. For the same compound, the “Pre-emergence action against STEME” value (Stellaria media [26]; 20 g/ha) was 90%, the “Pre-emergence action against STEME” value (Stellaria media [26]; 80 g/ha) was 90% and the “Pre-emergence action against STEME” value (Stellaria media [26]; 320 g/ha) was 90%. The “Post-emergence action against MATIN in %” value (Matricaria inodora [27]; 20 g/ha) was 100%, the “Post-emergence action against MATIN in %” value (Matricaria inodora [27]; 80 g/ha) was 100% and the “Pre-emergence action against PHBPU” value (Pharbitis purpurea [28]; 80 g/ha) was 80%. For the same compound, the “Pre-emergence action against PHBPU” value (Pharbitis purpurea [28]; 320 g/ha) was 90%, the “Post-emergence action against AMARE in %” value (Amaranthus retroflexus [29]; 5 g/ha) was 100% and the “Post-emergence action against AMARE in %” value (Amaranthus retroflexus [29]; 20 g/ha) was 100%. The “Post-emergence action against AMARE in %” value (Amaranthus retroflexus [29]; 80 g/ha) was 100%, the “Pre-emergence action against POLCO” value (Polygonum convolvulus [30]; 80 g/ha) was 80% and the “Pre-emergence action against POLCO” value (Polygonum convolvulus [30]; 320 g/ha) was 80%.

Reference: patent publication US12599136B2, “Substituted isophthalic acid diamides and their use as herbicides” (Bayer Aktiengesellschaft, priority 2020, dated 2026)
